Values quoted from earlier work in US20100196504A1, “SYNERGISTIC ACTIVE PREPARATIONS COMPRISING 1,2-DECANEDIOL AND FURTHER ANTIMICROBIAL ACTIVE COMPOUNDS” (SYMRISE GmbH & Co. KG, priority 2007, published 2010).

Experiments:
Corynebacterium acnes = settings: microorganism causing body odour
[1] = system: Staphylococcus epidermidis; settings: microorganism causing body odour
Propionibacterium acnes = settings: microorganism causing acne

Measured: antimicrobial activity

CCCCCCCCC(O)CO (stereo not drawn) [1,2-decanediol]
antimicrobial activity: Corynebacterium acnes | [1] | Propionibacterium acnes
